Results reported in patent US7112590B2, “Thrombin inhibitors” (LEK Pharmaceuticals d.d., priority 2000, dated 2006).

SMILES	melting point [°C]
Cl.Cl.N[C@H](Cc1ccccc1)C(=O)N1CCC[C@H]1C(=O)NC1CCc2n[nH]cc2C1 (some centres unmarked)	203 to 206
Cl.Cl.Nc1ncc2c(n1)CCC(NC(=O)[C@@H]1CCCN1C(=O)[C@@H](N)C(c1ccccc1)c1ccccc1)C2 (some centres unmarked)	212 to 215
Cl.Cl.Nc1ncc2c(n1)CCC(NC(=O)[C@@H]1CCCN1C(=O)[C@H](N)Cc1ccc(Cl)c(Cl)c1)C2 (some centres unmarked)	201 to 204
Cl.Cl.N[C@H](C(=O)N1CCC[C@H]1C(=O)NC1CCc2n[nH]cc2C1)C(c1ccccc1)c1ccccc1 (some centres unmarked)	195 to 198
Cl.Cl.N[C@H](Cc1ccc(Cl)c(Cl)c1)C(=O)N1CCC[C@H]1C(=O)NC1CCc2n[nH]cc2C1 (some centres unmarked)	199 to 202
Cl.Cl.Nc1ncc2c(n1)CCC(NC(=O)[C@@H]1CCCN1C(=O)[C@H](N)C(c1ccccc1)c1ccccc1)C2 (some centres unmarked)	199 to 202
Cl.Cl.Nc1nc2c(s1)CC(NC(=O)[C@@H]1CCCN1C(=O)[C@H](N)Cc1ccccc1)CC2 (some centres unmarked)	225 to 228
Cl.Cl.Nc1nc2c(s1)CC(NC(=O)[C@@H]1CCCN1C(=O)[C@H](N)Cc1ccc(Cl)c(Cl)c1)CC2 (some centres unmarked)	166 to 169
Cl.Cl.Nc1nc2c(s1)CC(NC(=O)[C@@H]1CCCN1C(=O)[C@@H](N)C(c1ccccc1)c1ccccc1)CC2 (some centres unmarked)	155 to 158
Cl.Cl.N[C@@H](C(=O)N1CCC[C@H]1C(=O)NC1CCc2n[nH]cc2C1)C(c1ccccc1)c1ccccc1 (some centres unmarked)	190 to 193
Cl.N[C@H](Cc1ccc(Cl)c(Cl)c1)C(=O)N1CCC[C@H]1C(=O)NCC1CCc2n[nH]cc2C1 (some centres unmarked)	145 to 148
Cl.Cl.Nc1ncc2c(n1)CCC(CNC(=O)[C@@H]1CCCN1C(=O)[C@H](N)Cc1ccc(Cl)c(Cl)c1)C2 (some centres unmarked)	169 to 172
Cl.Cl.O=C(O)CN[C@H](CC1CCCCC1)C(=O)N1CCC[C@H]1C(=O)NCC1CCc2n[nH]cc2C1 (some centres unmarked)	144 to 147
Cl.Cl.Nc1ncc2c(n1)CCC(CNC(=O)[C@@H]1CCCN1C(=O)[C@H](N)C(c1ccccc1)c1ccccc1)C2 (some centres unmarked)	166 to 168
Cl.Cl.Nc1nc2c(s1)CC(NC(=O)[C@@H]1CCCN1C(=O)[C@@H](CC1CCCCC1)NCC(=O)O)CC2 (some centres unmarked)	180 to 182
Cl.Cl.Nc1ncc2c(n1)CCC(NC(=O)[C@@H]1CCCN1C(=O)[C@H](N)Cc1ccccc1)C2 (some centres unmarked)	205 to 208
Nc1ncc2c(n1)CCC(NC(=O)[C@@H]1CCCN1C(=O)[C@@H](Cc1ccccc1)NS(=O)(=O)Cc1ccccc1)C2 (stereo partly drawn) [Example 6, (2S)-N-(2-Amino-5,6,7,8-tetrahydro-6-quinazolinyl)-1-{(2R)-2-[(benzylsulfonyl)amino]-3-phenylpropanoyl}-2-pyrrolidinecarboxamide]	117 to 120
CC(C)(C)OC(=O)N[C@H](Cc1ccccc1)C(=O)N1CCC[C@H]1C(=O)NC1CCc2nc(N)ncc2C1 (some centres unmarked) [Example 7]	110 to 113
O=C(NC1CCc2n[nH]cc2C1)[C@@H]1CCCN1C(=O)[C@@H](Cc1ccccc1)NS(=O)(=O)Cc1ccccc1 (stereo partly drawn) [Example 9, (2S)-1-{(2R)-2-[(Benzylsulfonyl)amino]-3-phenylpropanoyl}-N-(4,5,6,7-tetrahydro-2H-indazol-5-yl)-2-pyrrolidinecarboxamide]	114 to 116

SMILES	melting point [°C]
CC(C)(C)OC(=O)N[C@H](Cc1ccccc1)C(=O)N1CCC[C@H]1C(=O)NC1CCc2n[nH]cc2C1 (stereo partly drawn) [Example 10, tert-Butyl (1R)-1-benzyl-2-oxo-2-{(2S)-2-[(4,5,6,7-tetrahydro-2H-indazol-5-ylamino)carbonyl]pyrrolidinyl}ethylcarbamate]	108 to 110
Nc1ncc2c(n1)CCC(CNC(=O)[C@@H]1CCCN1C(=O)[C@@H](Cc1ccccc1)NS(=O)(=O)Cc1ccccc1)C2 (stereo partly drawn) [Example 12, (2S)-N-[(2-Amino-5,6,7,8-tetrahydro-6-quinazolinyl)methyl]-1-{(2R)-2-[(benzylsulfonyl)amino]-3-phenylpropanoyl}-2-pyrrolidinecarboxamide]	118 to 121
CC(C)(C)OC(=O)N[C@H](C(=O)N1CCC[C@H]1C(=O)NC1CCc2nc(N)ncc2C1)C(c1ccccc1)c1ccccc1 (stereo partly drawn) [Example 13, tert-Butyl (1S)-2-((2S)-2-{[(2-amino-5,6,7,8-tetrahydro-6-quinazolinyl)amino]carbonyl}pyrrolidinyl)-1-benzhydryl-2-oxoethylcarbamate]	127 to 130
CC(C)(C)OC(=O)N[C@H](Cc1ccc(Cl)c(Cl)c1)C(=O)N1CCC[C@H]1C(=O)NC1CCc2nc(N)ncc2C1 (stereo partly drawn) [Example 14, tert-Butyl (1R)-2-((2S)-2-{[(2-amino-5,6,7,8-tetrahydro-6-quinazolinyl)amino]carbonyl}pyrrolidinyl)-1-(3,4-dichlorobenzyl)-2-oxoethylcarbamate]	114 to 117
CC(C)(C)OC(=O)N[C@H](C(=O)N1CCC[C@H]1C(=O)NC1CCc2n[nH]cc2C1)C(c1ccccc1)c1ccccc1 (stereo partly drawn) [Example 15, tert-Butyl (1S)-1-benzhydryl-2-oxo-2-{(2S)-2-[(4,5,6,7-tetrahydro-2H-indazol-5-ylamino)carbonyl]pyrrolidinyl}ethylcarbamate]	127 to 130
CC(C)(C)OC(=O)N[C@H](Cc1ccc(Cl)c(Cl)c1)C(=O)N1CCC[C@H]1C(=O)NC1CCc2n[nH]cc2C1 (stereo partly drawn) [Example 16, tert-Butyl (1R)-1-(3,4dichlorobenzyl)-2-oxo-2-{(2S)-2-[(4,5,6,7-tetrahydro-2H-indazol-5-ylamino)carbonyl]pyrrolidinyl}ethylcarbamate]	116 to 119
Nc1ncc2c(n1)CCC(NC(=O)[C@@H]1CCCN1C(=O)[C@@H](CC1CCCCC1)NS(=O)(=O)Cc1ccccc1)C2 (stereo partly drawn) [Example 21, (2S)-N-(2-Amino-5,6,7,8-tetrahydro-6-quinazolinyl)-1-{(2R)-2-[(benzylsulfonyl)amino]-3-cyclohexylpropanoyl}-2-pyrrolidinecarboxamide]	114 to 117
O=C(NC1CCc2n[nH]cc2C1)[C@@H]1CCCN1C(=O)[C@@H](CC1CCCCC1)NS(=O)(=O)Cc1ccccc1 (stereo partly drawn) [Example 22, (2S)-1-{(2R)-2-[(Benzylsulfonyl)amino]-3-cyclohexylpropanoyl}-N-(4,5,6,7-tetrahydro-2H-indazol-5-yl)-2-pyrrolidinecarboxamide]	106 to 109
CC(C)(C)OC(=O)N[C@@H](C(=O)N1CCC[C@H]1C(=O)NC1CCc2nc(N)ncc2C1)C(c1ccccc1)c1ccccc1 (stereo partly drawn) [Example 23, tert-Butyl (1R)-2-((2S)-2-{[(2-amino-5,6,7,8-tetrahydro-6-quinazolinyl)amino]carbonyl}pyrrolidinyl)-1-benzhydryl-2-oxoethylcarbamate]	128 to 131
CC(C)(C)OC(=O)N[C@H](Cc1ccccc1)C(=O)N1CCC[C@H]1C(=O)NC1CCc2nc(N)sc2C1 (stereo partly drawn) [Example 25, tert-Butyl (1R)-2-((2S)-2-{[(2-amino-4,5,6,7-tetrahydro-1,3-benzothiazol-6-yl)amino]carbonyl}pyrrolidinyl)-1-benzyl-2oxoethylcarbamate]	120 to 123
Nc1nc2c(s1)CC(NC(=O)[C@@H]1CCCN1C(=O)[C@@H](Cc1ccccc1)NS(=O)(=O)Cc1ccccc1)CC2 (stereo partly drawn) [Example 27, (2S)-N-(2-amino-4,5,6,7-tetrahydro-1,3-benzothiazol-6-yl)-1-{(2R)-2-[(benzylsulfonyl)amino]-3-phenylpropanoyl}-2-pyrrolidinecarboxamide]	126 to 129
Nc1nc2c(s1)CC(NC(=O)[C@@H]1CCCN1C(=O)[C@@H](CC1CCCCC1)NS(=O)(=O)Cc1ccccc1)CC2 (stereo partly drawn) [Example 28, (2S)-N-(2-Amino-4,5,6,7-tetrahydro-1,3-benzothiazol-6-yl)-1-{(2R)-2-[(benzylsulfonyl)amino]-3-cyclohexylpropanoyl}-2-pyrrolidinecarboxamide]	127 to 130
Nc1nc2c(s1)CC(NC(=O)[C@@H]1CCCN1C(=O)[C@@H](Cc1ccccc1)NS(=O)(=O)c1ccc3ccccc3c1)CC2 (stereo partly drawn) [Example 30, (2S)-N-(2-Amino-4,5,6,7-tetrahydro-1,3-benzothiazol-6-yl)-1-{(2R)-2-[(2-naphthylsulfonyl)amino]-3-phenylpropanoyl}-2-pyrrolidinecarboxamide]	128 to 131
Nc1nc2c(s1)CC(NC(=O)CNC(=O)[C@@H](Cc1ccccc1)NS(=O)(=O)Cc1ccccc1)CC2 (stereo partly drawn) [Example 31, (2R)-N-{2-[(2-Amino-4,5,6,7-tetrahydro-1,3-benzothiazol-6-yl)amino]-2-oxoethyl}-2-[(benzylsulfonyl)amino]3-phenylpropanamide]	119 to 122
C[C@H](NC(=O)[C@@H](Cc1ccccc1)NS(=O)(=O)Cc1ccccc1)C(=O)NC1CCc2nc(N)sc2C1 (stereo partly drawn) [Example 32, (2R)-N-{(1S)-2-[(2-Amino-4,5,6,7-tetrahydro-1,3-benzothiazol-6-yl)amino]-1-methyl-2-oxoethyl}-2-[(benzylsulfonyl)amino]-3-phenylpropanamide]	122 to 125
Nc1nc2c(s1)CC(NC(=O)[C@@H]1CCCN1C(=O)CNC(c1ccccc1)(c1ccccc1)c1ccccc1)CC2 (stereo partly drawn) [Example 33, (2S)-N-(2-Amino-4,5,6,7-tetrahydro-1,3-benzothiazol-6-yl)-1-[2-(tritylamino)acetyl]-2-pyrrolidinecarboxamide]	125 to 128
CC(C)(C)OC(=O)N[C@H](Cc1ccc(Cl)c(Cl)c1)C(=O)N1CCC[C@H]1C(=O)NC1CCc2nc(N)sc2C1 (stereo partly drawn) [Example 34, tert-Butyl (1R)-2-((2S)-2-{[(2-amino-4,5,6,7-tetrahydro-1,3-benzothiazol-6-yl)amino]carbonyl}pyrrolidinyl)-1-(3,4-dichlorobenzyl)-2-oxoethylcarbamate]	116 to 119
CC(C)(C)OC(=O)N[C@H](C(=O)N1CCC[C@H]1C(=O)NC1CCc2nc(N)sc2C1)C(c1ccccc1)c1ccccc1 (stereo partly drawn) [Example 35, tert-Butyl (1S)-2-((2S)-2-{[(2-amino-4,5,6,7-tetrahydro-1,3-benzothiazol-6-yl)amino]carbonyl}pyrrolidinyl)-1-benzhydryl-2-oxoethylcarbamate]	127 to 130
Nc1nc2ccc(NC(=O)[C@@H]3CCCN3C(=O)[C@@H](Cc3ccccc3)NS(=O)(=O)Cc3ccccc3)cc2s1 [Example 38, (2S)-N-(2-Amino-1,3-benzothiazol-6-yl)-1-{(2R)-2-[(benzylsulfonyl)amino]-3-phenylpropanoyl}-2-pyrrolidinecarboxamide]	130 to 133
